From US11083735B2, “Methods for treating sleep disorders, sleep disturbances, and related symptoms using aminosterol compositions” (Enterin, Inc., priority 2017, dated 2021)

Key:
[1] = Duration of the aminosterol-induced response after a single oral dose; format: in vivo, human; settings: single 200 mg oral dose
Source text: The invention is also based on the discovery of unexpected and unprecedented activity of orally or nasally administered squalamine and related aminosterols (e.g., aminosterol 1436). The activity relates to stimulating a sequence of events within the human GI tract with therapeutic value. With respect to this activity, the sequence of events stimulated by an aminosterol such as squalamine or aminosterol 1436 involves the induction of an intestinal secretory response followed by a period of “small intestinal quieting,” and the subsequent passage of a normally formed bowel movement. These events are best explained as a consequence of the stimulation of a heretofore unknown physiological gastrointestinal response, in this invention shown to be controlled or initiated by an effective oral dose of an aminosterol such as squalamine or the related aminosterol, 1436 (Aminosterol-Induced GI Response). The activity relates to stimulating the neural connections between the enteric nervous system and the brain with therapeutic value, which can thereby impact sleeping disorders, sleeping disturbances, or related symptoms, as described herein. With respect to this activity, the sequence of events stimulated by an aminosterol involves the entrainment of the circadian clock, the suprachiasmatic nucleus, and an improvement in the quality of sleep. […]

dogs, and rodents = settings: administered orally; cited from earlier work
isolated colons = experiment: Isolated perfused colon, migrating muscular contractions (aged mouse; loperamide in young mouse); settings: loperamide introduced into the lumen of a young mouse
Source text: Isolated colons were mounted in an apparatus that permits continuous perfusion through the lumen, and the monitoring of the velocity, frequency and pressure of migrating muscular contractions (MMCs). Similar to the experience in humans, aging in mice is associated with diminished colonic peristaltic activity.
In humans, opiates markedly diminish GI motility and suppress fluid secretion causing constipation. […] When loperamide is introduced into the lumen of a young mouse colonic peristalsis is inhibited. When squalamine is added in presence of continued loperamide perfusion, the dysmotility is overridden.

[2] = single and repeat intravenous administration; cited from earlier work
[3] = in vivo; cited from earlier work

Question: Which “duration of the aminosterol-induced response” value [1] does the source give for `CC(C)[C@@H](CC[C@@H](C)[C@H]1CC[C@H]2[C@@H]3[C@H](O)C[C@H]4C[C@@H](NCCCNCCCCNCCCN)CC[C@]4(C)[C@H]3CC[C@]12C)OS(=O)(=O)O` [Aminosterol 1436] here?
Answer: about 4 days

Question: And the anorectic activity (dogs, and rodents)?
Answer: no anorectic activity

Question: With `CN(C)C(=O)C(CCN1CCC(O)(c2ccc(Cl)cc2)CC1)(c1ccccc1)c1ccccc1` [loperamide, reference compound] as the molecule, how does the colonic peristalsis (isolated colons) read?
Answer: inhibited

Question: With `CC(C)[C@@H](CC[C@@H](C)[C@H]1CC[C@H]2[C@@H]3[C@H](O)C[C@H]4C[C@@H](NCCCNCCCCN)CC[C@]4(C)[C@H]3CC[C@]12C)OS(=O)(=O)O.C[C@H](O)C(=O)O.O` [squalamine lactate] as the molecule, how does the well tolerated dose [2] read?
Answer: at least 300 mg/m^2

Question: What about the oral bioavailability [3] of the same molecule?
Answer: poorly bioavailable orally
